In US20120202794A1 (priority 2011, published 2012):

How the values were obtained:
[1] = tested on: HCV Replicon 1b; assay: HCV inhibition assay, HCV replicon 1b (Clone A or ET-lunet cells; RT-PCR or luciferase reporter); type: cell-based; details: Hepatitis C virus, 96 h, HCV replicon 1b; 4 days incubation; read-out: Replicon 1b potency EC90
Experimental: HCV inhibition assay. Clone A or ET-lunet cells were seeded at a density of 1500 or 3000 cells per well in a 96-well plate, respectively. Test compounds serially diluted in culture medium without G418 were added to cells so that the final DMSO concentration was 0.5%. Plates were incubated at 37° C. in a 5% CO2 atmosphere for 4 days. Inhibition of HCV RNA replication was determined by real time PCR (RT-PCR) or by measuring the levels of luminescence expressed via the luciferase reporter gene encoded within the ET replicon. Briefly, for the RT-PCR assay, total RNA was extracted using the RNeasy-96 kit as recommended by the manufacturer (Qiagen, Valencia, Calif.), reversed transcribed into cDNA, and amplified using primer and probe mix for HCV 5′-NTR RNA and human ribosomal RNA (rRNA) in a one-step RT-PCR reaction as described previously (50). A relative quantification method was used to determine the extent of inhibition. The threshold cycle (Ct) of rRNA was subtracted from the Ct of HCV RNA (ΔCt). The average ΔCt of the DMSO cell controls was then subtracted from the ΔCt of the compound treated sample (ΔΔCt). Percent inhibition was determined by using the following equation: %=(1−(2^−ΔΔC^t))×100. For the luciferase-based replicon assay, luminescence was measured by using a Victor3 plate reader (Perkin-Elmer, Boston, Mass.) following the addition of Bright-Glo reagent as recommended by the manufacturer (Promega, Madison, Wis.). Percent inhibition of HCV replication was determined by comparing the change in luminescence of the drug treated wells versus the DMSO cell controls. EC50 and EC90 values, the concentrations at which 50% and 90% inhibition were achieved, were determined using the GraphPad Prism software (San Diego, Calif.).

[2] = Cell cytotoxicity assay (MTS), CC90 as reported in Table 1, cell line not stated; type: cell-based; details: human; cell line not given
Experimental: Cell cytotoxicity assays. Each compound (serially diluted from 100 μM) was added to Huh7 (2×10^3 cells/well), HepG2 (2×10^3 cells/well), BxPC3 (2×10^3 cells/well), or CEM (5×10^3 cells/well) cells and allowed to incubate for 8 days at 37° C. A medium only control was used to determine the minimum absorbance value […]. At the end of the growth period, MTS dye from the CellTiter 96 Aqueous One Solution Cell Proliferation Assay kit (Promega) was added to each well and the plate was incubated for an additional 2 hours. The absorbance at 490 nm was read with a Victor3 plate reader (Perkin Elmer) using the medium only control wells as blanks. The 90% inhibition value (CC90) was determined by comparing the absorbance in wells containing cells and test compound to untreated cell control wells.

| Structure (SMILES) | EC90 [1] | CC90 at 8 days [2] |
| --- | --- | --- |
| CC(C)C[C@H]1C(=O)N[C@@H](C2CCCC2)CN1C(=O)c1cc(-c2ccc(F)cc2)on1 [Compound 163] | 90 nM | > 10000 nM |
| CCC[C@H]1CN(C(=O)c2cc(-c3ccc(F)cc3F)on2)[C@@H](CC(C)C)C(=O)N1 [Compound 165] | 340 nM | > 10000 nM |
| CC(C)C[C@H]1C(=O)N[C@@H](CC2CC2)CN1C(=O)c1cc(-c2ccc(Cl)cc2)on1 [Compound 166] | 360 nM | > 10000 nM |
| CC(C)C[C@H]1C(=O)N[C@@H](CC2CC2)CN1C(=O)c1cc(-c2ccc(F)cc2)on1 [Compound 167] | 450 nM | > 10000 nM |
| CC(C)C[C@H]1C(=O)N[C@@H](CC2CC2)CN1C(=O)c1cc(-c2cccs2)on1 [Compound 168] | 900 nM | > 10000 nM |
| CCC[C@H]1CN(C(=O)c2cc(-c3cccs3)on2)[C@@H](CC(C)C)C(=O)N1 [Compound 169] | 150 nM | > 10000 nM |
| CCC[C@H]1CN(C(=O)c2cc(-c3ccc(Cl)cc3)on2)[C@@H](CC(C)C)C(=O)N1 [Compound 170] | 50 nM | > 10000 nM |
| CC(C)C[C@H]1C(=O)N[C@@H](C2CCCCC2)CN1C(=O)c1cc(-c2ccc(Cl)cc2)on1 [Compound 171] | 150 nM | > 10000 nM |
| CC(C)C[C@H]1C(=O)N[C@@H](C2CCCCC2)CN1C(=O)c1cc(-c2cccs2)on1 [Compound 172] | 410 nM | > 10000 nM |
| CC(C)C[C@H]1C(=O)N[C@@H](C2CCCC2)CN1C(=O)c1cc(-c2ccc(Cl)cc2)on1 [Compound 173] | 120 nM | > 10000 nM |
| CC(C)C[C@H]1C(=O)N[C@@H](C2CCCC2)CN1C(=O)c1cc(-c2cccs2)on1 [Compound 174] | 250 nM | > 10000 nM |
| CC(C)C[C@H]1C(=O)N[C@@H](C(C)C)CN1C(=O)c1cc(-c2ccc(F)cc2)on1 [Compound 175] | 170 nM | > 10000 nM |
| CC(C)C[C@H]1CN(C(=O)c2cc(-c3ccc(S(C)(=O)=O)cc3)on2)[C@@H](CC(C)C)C(=O)N1 [Compound 176] | > 20000 nM | > 10000 nM |
| CC(C)C[C@H]1C(=O)N[C@@H](c2ccccc2)CN1C(=O)c1cc(-c2ccc(F)cc2)on1 [Compound 178] | 50 nM | > 10000 nM |
| CC(C)C[C@H]1CN(C(=O)c2cc(-c3ccc(OC(F)(F)F)cc3)on2)[C@@H](CC(C)C)C(=O)N1 [Compound 179] | 14900 nM | > 10000 nM |
| CC(C)C[C@H]1C(=O)N[C@@H](C2CC2)CN1C(=O)c1cc(-c2ccc(F)cc2)on1 [Compound 180] | 600 nM | > 10000 nM |
| CC(C)C[C@H]1C(=O)N[C@@H](C(C)C)CN1C(=O)c1cc(-c2ccc(Cl)cc2)on1 [Compound 181] | 230 nM | > 10000 nM |
| CSC[C@H]1CN(C(=O)c2cc(-c3ccc(Cl)cc3)on2)[C@@H](CC(C)C)C(=O)N1 [Compound 182] | 550 nM | > 10000 nM |
| CC(C)C[C@H]1C(=O)N[C@@H](c2ccccc2)CN1C(=O)c1cc(-c2ccc(Cl)cc2)on1 [Compound 183] | 60 nM | > 10000 nM |
| CCC[C@H]1CN(C(=O)c2cc(-c3ccc(F)c(F)c3)on2)[C@@H](CC(C)C)C(=O)N1 [Compound 184] | 140 nM | > 10000 nM |
| CC(C)C[C@H]1C(=O)N[C@@H](C2CCCCC2)CN1C(=O)c1cc(-c2ccc(F)c(F)c2)on1 [Compound 185] | 610 nM | > 10000 nM |
| CC(C)C[C@H]1C(=O)N[C@@H](C2CCCC2)CN1C(=O)c1cc(-c2ccc(F)c(F)c2)on1 [Compound 186] | 260 nM | > 10000 nM |

| Structure (SMILES) | EC90 [1] | CC90 at 8 days [2] |
| --- | --- | --- |
| CC(C)C[C@H]1C(=O)N[C@@H](C(C)C)CN1C(=O)c1cc(-c2ccc(F)c(F)c2)on1 [Compound 187] | 620 nM | > 10000 nM |
| CC(C)C[C@H]1C(=O)N[C@@H](c2ccccc2)CN1C(=O)c1cc(-c2ccc(F)c(F)c2)on1 [Compound 188] | 180 nM | > 10000 nM |
| CCC[C@H]1CN(C(=O)c2cc(-c3ccc(F)cc3)no2)[C@@H](CC(C)C)C(=O)N1 [Compound 189] | 110 nM | > 10000 nM |
| CC(C)C[C@H]1CN(C(=O)c2cc(-c3ccc(Cl)cc3)no2)[C@@H](CC(C)C)C(=O)N1 [Compound 190] | 320 nM | > 10000 nM |
| CC(C)C[C@H]1C(=O)N[C@@H](CC2CC2)CN1C(=O)c1cc(-c2ccc(F)cc2)no1 [Compound 191] | 120 nM | > 10000 nM |
| CC(C)C[C@H]1C(=O)N[C@@H](C2CCCCC2)CN1C(=O)c1cc(-c2ccc(F)cc2)no1 [Compound 193] | 50 nM | > 10000 nM |
| CC(C)C[C@H]1C(=O)N[C@@H](C2CCCC2)CN1C(=O)c1cc(-c2ccc(F)cc2)no1 [Compound 194] | 40 nM | > 10000 nM |
| CC(C)C[C@H]1CN(Cc2cc(-c3ccccc3)on2)[C@@H](CC(C)C)C(=O)N1 [Compound 195] | 750 nM | > 10000 nM |
| CC(C)C[C@H]1CN(Cc2cc(-c3ccc(F)cc3)on2)[C@@H](CC(C)C)C(=O)N1 [Compound 196] | 80 nM | > 10000 nM |
| CC(C)C[C@H]1CN(Cc2cc(-c3ccc(Cl)cc3)on2)[C@@H](CC(C)C)C(=O)N1 [Compound 197] | 240 nM | > 10000 nM |
| CC(C)C[C@H]1CN(Cc2cc(-c3ccc(Br)cc3)on2)[C@@H](CC(C)C)C(=O)N1 [Compound 198] | 550 nM | > 10000 nM |
| Cc1ccc(-c2cc(CN3C[C@H](CC(C)C)NC(=O)[C@@H]3CC(C)C)no2)cc1 [Compound 199] | 2150 nM | > 10000 nM |
| COc1ccc(-c2cc(CN3C[C@H](CC(C)C)NC(=O)[C@@H]3CC(C)C)no2)cc1 [Compound 200, (3S,6S)-3,6-Diisobutyl-4-((5-(4-methoxyphenyl)isoxazol-3-yl)methyl)piperazin-2-one] | 5790 nM | > 10000 nM |
| CC(C)C[C@H]1CN(Cc2cc(-c3ccco3)on2)[C@@H](CC(C)C)C(=O)N1 [Compound 201, (3S,6S)-4-((5-(Furan-2-yl)isoxazol-3-yl)methyl)-3,6-diisobutylpiperazin-2-one] | 1820 nM | > 10000 nM |
| CC(C)C[C@H]1CN(Cc2cc(-c3cccs3)on2)[C@@H](CC(C)C)C(=O)N1 [Compound 202, (3S,6S)-3,6-Diisobutyl-4-((5-(thiophen-2-yl)isoxazol-3-yl)methyl)piperazin-2-one] | 880 nM | > 10000 nM |
| CC(C)C[C@H]1C(=O)N[C@@H](C(C)(C)C)CN1Cc1cc(-c2ccc(F)cc2)on1 [Compound 205, (3S,6S)-6-(tert-butyl)-4-((5-(4-fluorophenyl)isoxazol-3-yl)methyl)-3-isobutylpiperazin-2-one] | 8900 nM | > 10000 nM |
| CCC[C@H]1CN(Cc2cc(-c3ccc(F)cc3)on2)[C@@H](CC(C)C)C(=O)N1 [Compound 206, (3S,6S)-4-((5-(4-fluorophenyl)isoxazol-3-yl)methyl)-3-isobutyl-6-propylpiperazin-2-one] | 210 nM | > 10000 nM |
| CC(C)C[C@H]1C(=O)N[C@@H](C2CCCCC2)CN1Cc1cc(-c2ccc(F)cc2)on1 [Compound 207, (3S,6S)-6-cyclohexyl-4-((5-(4-fluorophenyl)isoxazol-3-yl)methyl)-3-isobutylpiperazin-2-one] | 860 nM | > 10000 nM |
| CC(C)C[C@H]1C(=O)N[C@@H](C2CCCC2)CN1Cc1cc(-c2ccc(F)cc2)on1 [Compound 208, (3S,6S)-6-cyclopentyl-4-((5-(4-fluorophenyl)isoxazol-3-yl)methyl)-3-isobutylpiperazin-2-one] | 210 nM | > 10000 nM |
| CC(C)C[C@H]1C(=O)N[C@@H](CC2CC2)CN1Cc1cc(-c2ccc(Cl)cc2)on1 [Compound 209, (3S,6S)-4-((5-(4-chlorophenyl)isoxazol-3-yl)methyl)-6-(cyclopropylmethyl)-3-isobutylpiperazin-2-one] | 670 nM | > 10000 nM |
| CCC[C@H]1CN(Cc2cc(-c3ccc(Cl)cc3)on2)[C@@H](CC(C)C)C(=O)N1 [Compound 210, (3S,6S)-4-((5-(4-chlorophenyl)isoxazol-3-yl)methyl)-3-isobutyl-6-propylpiperazin-2-one] | 320 nM | > 10000 nM |
